Source: PMC6199744, “Development of Chemical Proteomics for the Folateome and Analysis of the Kinetoplastid Folateome” (ACS Infectious Diseases, 2018)
Like-named read-outs stand apart in the source and are kept apart here.

Tests used:
Assay type in all cases: binding
[1] = target: T1, HeLa cell extract proteins (Homo sapiens, UniProt P25788)
T1 construct: endogenous in cells; host or cells: HeLa cell extract
T1 sequence (P25788 1-255): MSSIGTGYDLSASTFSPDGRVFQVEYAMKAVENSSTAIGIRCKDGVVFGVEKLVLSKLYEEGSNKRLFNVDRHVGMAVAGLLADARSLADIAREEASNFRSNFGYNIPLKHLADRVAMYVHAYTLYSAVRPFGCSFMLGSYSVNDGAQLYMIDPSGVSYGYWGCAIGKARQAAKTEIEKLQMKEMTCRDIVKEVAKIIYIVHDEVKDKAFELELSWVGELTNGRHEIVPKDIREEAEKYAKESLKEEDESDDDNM

[2] = target: T2, HeLa cell extract proteins (Homo sapiens, UniProt P30876)
T2 construct: endogenous in cells; host or cells: HeLa cell extract

[3] = target: T3, HeLa cell extract proteins (Homo sapiens, UniProt P04040)
T3 construct: endogenous in cells; host or cells: HeLa cell extract
T3 sequence (P04040 1-527): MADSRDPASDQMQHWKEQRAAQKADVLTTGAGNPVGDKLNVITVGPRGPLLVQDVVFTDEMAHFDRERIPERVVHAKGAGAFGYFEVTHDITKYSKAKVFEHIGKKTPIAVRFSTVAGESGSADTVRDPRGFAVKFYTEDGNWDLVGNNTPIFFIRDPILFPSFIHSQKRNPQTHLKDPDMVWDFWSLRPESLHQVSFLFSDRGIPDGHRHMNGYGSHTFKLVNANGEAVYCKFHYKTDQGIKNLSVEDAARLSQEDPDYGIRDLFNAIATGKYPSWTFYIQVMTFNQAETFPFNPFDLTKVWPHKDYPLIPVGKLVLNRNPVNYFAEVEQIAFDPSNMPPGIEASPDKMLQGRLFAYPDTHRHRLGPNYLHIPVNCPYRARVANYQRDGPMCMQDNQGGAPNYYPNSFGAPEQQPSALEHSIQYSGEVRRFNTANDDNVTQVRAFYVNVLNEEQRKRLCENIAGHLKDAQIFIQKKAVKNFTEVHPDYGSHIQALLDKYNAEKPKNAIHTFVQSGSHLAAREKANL

[4] = target: T4, HeLa cell extract proteins (Homo sapiens, UniProt P62258)
T4 construct: endogenous in cells; host or cells: HeLa cell extract
T4 sequence (P62258 1-255): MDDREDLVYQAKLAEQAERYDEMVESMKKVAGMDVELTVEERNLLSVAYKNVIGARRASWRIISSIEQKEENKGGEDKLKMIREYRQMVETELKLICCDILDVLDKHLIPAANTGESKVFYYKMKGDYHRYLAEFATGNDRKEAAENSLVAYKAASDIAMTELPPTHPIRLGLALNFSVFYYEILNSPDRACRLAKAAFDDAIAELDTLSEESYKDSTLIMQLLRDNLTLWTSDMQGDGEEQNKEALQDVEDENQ

[5] = target: T5, HeLa cell extract proteins (Homo sapiens, UniProt Q969M3)
T5 construct: endogenous in cells; host or cells: HeLa cell extract

[6] = target: T6, HeLa cell extract proteins (Homo sapiens, UniProt Q9Y678)
T6 construct: endogenous in cells; host or cells: HeLa cell extract
T6 sequence (Q9Y678 1-874): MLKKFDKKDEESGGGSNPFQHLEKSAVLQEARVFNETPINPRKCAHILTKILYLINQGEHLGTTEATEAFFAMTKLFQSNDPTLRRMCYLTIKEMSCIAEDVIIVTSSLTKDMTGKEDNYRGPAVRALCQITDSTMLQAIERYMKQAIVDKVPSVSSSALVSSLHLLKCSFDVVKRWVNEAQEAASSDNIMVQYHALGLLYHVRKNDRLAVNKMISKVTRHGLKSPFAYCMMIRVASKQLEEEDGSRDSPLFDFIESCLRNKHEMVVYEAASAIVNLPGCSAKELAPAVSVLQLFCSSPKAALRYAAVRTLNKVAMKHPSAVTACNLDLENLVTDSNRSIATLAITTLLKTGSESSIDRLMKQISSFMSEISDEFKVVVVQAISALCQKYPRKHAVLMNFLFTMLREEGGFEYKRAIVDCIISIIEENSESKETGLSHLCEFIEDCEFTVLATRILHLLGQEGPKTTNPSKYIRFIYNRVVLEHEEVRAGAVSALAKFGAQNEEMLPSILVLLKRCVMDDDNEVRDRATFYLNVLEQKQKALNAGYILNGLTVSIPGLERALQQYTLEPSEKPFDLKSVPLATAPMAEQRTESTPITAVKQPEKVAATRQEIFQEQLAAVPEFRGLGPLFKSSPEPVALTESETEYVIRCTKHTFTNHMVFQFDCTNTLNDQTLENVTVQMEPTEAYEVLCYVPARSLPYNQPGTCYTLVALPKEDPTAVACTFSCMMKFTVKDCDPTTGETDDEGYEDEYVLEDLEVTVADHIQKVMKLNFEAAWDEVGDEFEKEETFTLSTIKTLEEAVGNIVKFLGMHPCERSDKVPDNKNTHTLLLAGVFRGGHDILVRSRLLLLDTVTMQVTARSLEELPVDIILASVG

[7] = target: T7, HeLa cell extract proteins (Homo sapiens, UniProt Q9Y6K9)
T7 construct: endogenous in cells; host or cells: HeLa cell extract

[8] = target: T8, HeLa cell extract proteins (Homo sapiens, UniProt Q14203)
T8 construct: endogenous in cells; host or cells: HeLa cell extract

[9] = target: T9, HeLa cell extract proteins (Homo sapiens, UniProt Q15008)
T9 construct: endogenous in cells; host or cells: HeLa cell extract
T9 sequence (Q15008 1-389): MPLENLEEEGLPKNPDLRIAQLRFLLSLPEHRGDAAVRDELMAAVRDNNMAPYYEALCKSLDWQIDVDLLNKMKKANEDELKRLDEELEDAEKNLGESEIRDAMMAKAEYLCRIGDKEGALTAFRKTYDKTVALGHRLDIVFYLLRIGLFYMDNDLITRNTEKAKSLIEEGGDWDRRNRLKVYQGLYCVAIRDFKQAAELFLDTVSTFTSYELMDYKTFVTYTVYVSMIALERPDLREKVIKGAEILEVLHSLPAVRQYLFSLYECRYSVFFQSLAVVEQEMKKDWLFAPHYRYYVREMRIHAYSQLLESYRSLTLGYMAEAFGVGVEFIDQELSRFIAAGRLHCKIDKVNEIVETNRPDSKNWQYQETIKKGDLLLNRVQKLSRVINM

[10] = target: T10, HeLa cell extract proteins (Homo sapiens, UniProt Q13907)
T10 construct: endogenous in cells; host or cells: HeLa cell extract

[11] = HeLa, protein IKBKG (INHIBITOR OF KAPPAB KINASE GAMMA)
[12] = HeLa, protein IDI1 (ISOPENTENYL-DIPHOSPHATE DELTA ISOMERASE.)

T7 sequence (Q9Y6K9 whole entry): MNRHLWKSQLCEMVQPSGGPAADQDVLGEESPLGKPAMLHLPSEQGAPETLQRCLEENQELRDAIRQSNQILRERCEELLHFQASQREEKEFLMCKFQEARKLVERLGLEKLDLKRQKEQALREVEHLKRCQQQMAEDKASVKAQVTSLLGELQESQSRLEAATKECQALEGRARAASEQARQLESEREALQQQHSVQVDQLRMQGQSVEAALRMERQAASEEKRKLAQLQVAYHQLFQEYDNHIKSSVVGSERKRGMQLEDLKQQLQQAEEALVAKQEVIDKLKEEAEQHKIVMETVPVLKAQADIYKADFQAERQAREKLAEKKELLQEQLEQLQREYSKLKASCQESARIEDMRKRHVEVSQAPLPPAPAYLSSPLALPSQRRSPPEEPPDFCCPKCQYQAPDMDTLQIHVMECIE
T5 sequence (Q969M3 whole entry): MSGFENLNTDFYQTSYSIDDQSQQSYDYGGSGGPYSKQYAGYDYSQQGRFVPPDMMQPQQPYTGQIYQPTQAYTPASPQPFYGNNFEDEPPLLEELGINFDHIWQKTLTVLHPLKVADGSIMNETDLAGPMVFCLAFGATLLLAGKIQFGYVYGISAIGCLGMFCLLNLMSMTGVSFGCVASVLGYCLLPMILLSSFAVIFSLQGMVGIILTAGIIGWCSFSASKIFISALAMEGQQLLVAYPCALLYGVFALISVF
T10 sequence (Q13907 whole entry): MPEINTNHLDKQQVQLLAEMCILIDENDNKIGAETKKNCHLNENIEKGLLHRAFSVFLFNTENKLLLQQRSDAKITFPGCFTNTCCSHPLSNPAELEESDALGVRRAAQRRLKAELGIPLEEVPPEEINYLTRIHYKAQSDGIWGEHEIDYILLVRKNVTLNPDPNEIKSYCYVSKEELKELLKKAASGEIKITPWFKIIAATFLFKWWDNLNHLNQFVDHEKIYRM
T8 sequence (Q14203 whole entry): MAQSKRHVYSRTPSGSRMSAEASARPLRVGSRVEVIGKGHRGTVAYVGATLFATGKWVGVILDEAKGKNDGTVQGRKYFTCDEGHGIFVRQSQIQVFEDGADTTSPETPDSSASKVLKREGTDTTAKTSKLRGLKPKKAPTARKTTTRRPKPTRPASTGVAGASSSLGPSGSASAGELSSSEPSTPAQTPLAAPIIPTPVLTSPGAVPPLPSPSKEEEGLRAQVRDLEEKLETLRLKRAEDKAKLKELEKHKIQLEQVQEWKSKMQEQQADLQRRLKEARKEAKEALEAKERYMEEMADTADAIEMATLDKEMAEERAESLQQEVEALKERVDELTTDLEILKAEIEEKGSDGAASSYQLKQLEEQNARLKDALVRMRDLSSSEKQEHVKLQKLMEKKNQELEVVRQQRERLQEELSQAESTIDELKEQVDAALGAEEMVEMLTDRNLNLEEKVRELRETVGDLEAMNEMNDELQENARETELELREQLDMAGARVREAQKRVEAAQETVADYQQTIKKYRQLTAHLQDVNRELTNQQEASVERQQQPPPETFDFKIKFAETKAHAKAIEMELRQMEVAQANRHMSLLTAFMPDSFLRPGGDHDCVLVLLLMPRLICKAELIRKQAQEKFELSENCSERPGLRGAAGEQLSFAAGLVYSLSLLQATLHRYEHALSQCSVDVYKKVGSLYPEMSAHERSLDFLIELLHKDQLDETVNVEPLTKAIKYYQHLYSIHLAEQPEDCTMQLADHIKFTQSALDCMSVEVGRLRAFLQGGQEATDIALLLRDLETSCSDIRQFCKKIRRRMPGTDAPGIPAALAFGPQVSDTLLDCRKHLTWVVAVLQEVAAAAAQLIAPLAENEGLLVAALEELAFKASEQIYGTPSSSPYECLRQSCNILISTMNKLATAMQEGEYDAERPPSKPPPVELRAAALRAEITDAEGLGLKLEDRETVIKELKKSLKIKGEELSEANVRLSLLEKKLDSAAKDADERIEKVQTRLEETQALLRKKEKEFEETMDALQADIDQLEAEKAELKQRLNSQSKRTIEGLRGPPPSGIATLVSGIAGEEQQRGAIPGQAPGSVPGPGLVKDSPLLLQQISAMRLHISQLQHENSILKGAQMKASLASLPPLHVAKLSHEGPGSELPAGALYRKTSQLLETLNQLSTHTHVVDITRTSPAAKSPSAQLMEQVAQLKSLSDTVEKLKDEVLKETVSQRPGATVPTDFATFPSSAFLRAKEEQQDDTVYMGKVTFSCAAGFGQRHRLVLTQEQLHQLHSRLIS

| SMILES | fold changes relative to vehicle control ([1]; HeLa, captured protein PSMA3) | fold changes relative to vehicle control ([2]; protein POLR2B, HeLa) | fold changes relative to vehicle control ([3]; protein CAT, HeLa) | fold changes relative to vehicle control ([4]; HeLa, protein YWHAE) | fold changes relative to vehicle control ([5]; HeLa, captured protein YIPF5) | fold changes relative to vehicle control ([6]; protein COPG, HeLa) | fold changes relative to vehicle control [7, 11] | fold changes relative to vehicle control ([8]; protein DCTN1, HeLa) | fold changes relative to vehicle control ([9]; HeLa, protein PSMD6) | fold changes relative to vehicle control ([10]; HeLa, protein IDI1) | fold changes relative to vehicle control ([1]; protein PSMA3, HeLa) | fold changes relative to vehicle control ([2]; HeLa, protein POLR2B) | fold changes relative to vehicle control ([3]; captured protein CAT, HeLa) | fold changes relative to vehicle control ([4]; protein YWHAE, HeLa) | fold changes relative to vehicle control ([5]; captured protein YIPF5, HeLa) | fold changes relative to vehicle control ([7]; captured protein IKBKG, HeLa) | fold changes relative to vehicle control ([9]; protein PSMD6, HeLa) | other results |
| --- | --- | --- | --- | --- | --- | --- | --- | --- | --- | --- | --- | --- | --- | --- | --- | --- | --- | --- |
| Nc1nc2c(c(=O)[nH]1)N(C=O)C(CNc1ccc(C(=O)N[C@@H](CCC(=O)O)C(=O)O)cc1)CN2 (stereo partly shown) [LEU, leucovorin] | 1.02 | 0.8 | 0.87 | 1.01 | 0.94 | 0.91 | 0.98 | 1.14 | 0.77 | 1.09 | – | – | – | – | – | – | – | – |
| Nc1nc2[nH]cc(CCc3ccc(C(=O)N[C@@H](CCC(=O)O)C(=O)O)cc3)c2c(=O)[nH]1 [PTX, pemetrexed] | – | – | – | – | – | – | – | – | – | – | – | – | – | – | – | – | – | fold changes relative to vehicle control [1]: 0.99; fold changes relative to vehicle control [2]: 0.89; fold changes relative to vehicle control [3]: 0.88; fold changes relative to vehicle control [4]: 1.1; fold changes relative to vehicle control [5]: 0.98; fold changes relative to vehicle control [6]: 0.95; fold changes relative to vehicle control [7]: 1.02; fold changes relative to vehicle control [8]: 1.17; fold changes relative to vehicle control [9]: 0.69; fold changes relative to vehicle control [10]: 1.03 |
| CCCCCCOc1ccc(Cc2cnc(N)nc2N)cc1 [compound 1] | – | – | – | – | – | 0.93 | – | 1.18 | – | – | 1.04 | 0.94 | 0.77 | 1.37 | 1.43 | 1.08 | 0.94 | fold changes relative to vehicle control [10, 12]: 1.5 fold |
| CCCCCCOc1cccc(Cc2cnc(N)nc2N)c1 [compound 2] | – | – | – | – | – | 1.39 | – | 1.27 | – | – | 1.27 | 1.42 | 1.03 | 2 | 1.15 | 1.1 | 1.64 | fold changes relative to vehicle control [10, 12]: 2.18 fold |
| Nc1nc2cccc(-c3ccccc3)c2n1Cc1ccc(Cl)c(Cl)c1 [compound 3] | – | – | – | – | – | 1.14 | – | 1.1 | – | – | 0.86 | 0.98 | 0.78 | 1.03 | 0.72 | 0.9 | 1.72 | fold changes relative to vehicle control ([10]; HeLa, protein IDI1 (ISOPENTENYL-D[…] ISOMERASE.)): 0.88 fold |
| NCCOCCOCC(=O)Nc1nc2ncc(CNc3ccc(C(=O)NC(CCC(=O)O)C(=O)O)cc3)nc2c(=O)[nH]1 (stereo not shown) [compound 6] | 1.01 | 1.07 | 0.94 | 1.17 | 0.93 | 1.03 | 0.96 | 1.32 | 0.89 | 1.2 | – | – | – | – | – | – | – | – |
| NCCCNc1ccc(C(=O)NC(CCC(=O)O)C(=O)O)cc1 (stereo not shown) [compound 7] | 0.98 | 0.91 | 1.39 | 1.03 | 0.83 | 1.03 | 1.15 | 1.03 | 0.82 | 1.01 | – | – | – | – | – | – | – | – |
